Laboratory results published in ChEMBL document CHEMBL1155756, “Pacovatinins A-C, new labdane diterpenoids from the seeds of Renealmia exaltata” (J Nat Prod, 2001).
Values after ≈ are worked out from the molar mass of the structure shown.

Legend:
KB = experiment: Cytotoxicity against human KB cells; format: functional, cell-based
L1210 = experiment: Cytotoxicity against mouse L1210 cells; format: functional, cell-based

| SMILES | IC50 (KB) [µg/mL] | IC50 (L1210) [µg/mL] |
| --- | --- | --- |
| C=C1[C@@H](O)C[C@H]2C(C)(C)[C@@H](O)CC[C@]2(C)[C@H]1C/C=C1\CCOC1=O [PACOVATININ B] | > 10 | > 10 |
| C=C1[C@@H](O)C[C@H]2C(C)(C)C(=O)CC[C@]2(C)[C@H]1C/C=C1/CCOC1=O [PACOVATININ C] | 7.3 (≈ 22 µM) | 4.7 (≈ 14.1 µM) |
